The source made the active and inactive calls. No rule for the calls is given here.
Test system: CCRIS mutagenicity, Ames/micronucleus/aberration tests
Experiment: CCRIS mutagenicity studies
[1] = Test System: AMES SALMONELLA TYPHIMURIUM, Strain/Indicator: TA98, Metabolic Activation: NONE, Method: STANDARD PLATE
[2] = Test System: AMES SALMONELLA TYPHIMURIUM, Strain/Indicator: TA100, Metabolic Activation: NONE, Method: STANDARD PLATE
[3] = Test System: AMES SALMONELLA TYPHIMURIUM, Strain/Indicator: TA1535, Metabolic Activation: NONE, Method: STANDARD PLATE
[4] = Test System: AMES SALMONELLA TYPHIMURIUM, Strain/Indicator: TA1537, Metabolic Activation: NONE, Method: STANDARD PLATE
[5] = Test System: AMES SALMONELLA TYPHIMURIUM, Strain/Indicator: TA1538, Metabolic Activation: NONE, Method: STANDARD PLATE

SMILES: CCCCC[C@@](C)(O)/C=C/[C@H]1[C@H](O)CC(=O)[C@@H]1C/C=C\CCCC(=O)O
- mutagenic call [1]: inactive; negative
- mutagenic call (Test System: AMES SALMONELLA TYPHIMURIUM, Strain/Indicator: TA98, Metabolic Activation: S-9, Method: STANDARD PLATE): inactive; negative
- mutagenic call [2]: inactive; negative
- mutagenic call (Test System: AMES SALMONELLA TYPHIMURIUM, Strain/Indicator: TA100, Metabolic Activation: S-9, Method: STANDARD PLATE): inactive; negative
- mutagenic call [3]: inactive; negative
- mutagenic call (Test System: AMES SALMONELLA TYPHIMURIUM, Strain/Indicator: TA1535, Metabolic Activation: S-9, Method: STANDARD PLATE): inactive; negative
- mutagenic call [4]: inactive; negative
- mutagenic call (Test System: AMES SALMONELLA TYPHIMURIUM, Strain/Indicator: TA1537, Metabolic Activation: S-9, Method: STANDARD PLATE): inactive; negative
- mutagenic call [5]: inactive; negative
- mutagenic call (Test System: AMES SALMONELLA TYPHIMURIUM, Strain/Indicator: TA1538, Metabolic Activation: S-9, Method: STANDARD PLATE): inactive; negative
- mutagenic call (Test System: E. COLI, Strain/Indicator: WP2 UVRA, Metabolic Activation: NONE, Method: STANDARD PLATE): inactive; negative
- mutagenic call (Test System: E. COLI, Strain/Indicator: WP2 UVRA, Metabolic Activation: S-9, Method: STANDARD PLATE): inactive; negative

SMILES: CCN(CC)[N+](=O)[O-]
- mutagenic call (Test System: E. COLI, Strain/Indicator: WP2 (HCR-), Metabolic Activation: RAT, LIVER, MICROSOMES, PHENOBARBITAL): inactive; negative

SMILES: CC1=CCC(C(C)(C)O)CC1 (configuration not stated)
- mutagenic call (Test System: AMES SALMONELLA TYPHIMURIUM, Strain/Indicator: TA97A, Metabolic Activation: NONE, Method: STANDARD PLATE): inactive; negative
- mutagenic call (Test System: AMES SALMONELLA TYPHIMURIUM, Strain/Indicator: TA97A, Metabolic Activation: RAT LIVER S-9, AROCLOR 1254, Method: STANDARD PLATE): inactive; negative
- mutagenic call (Test System: AMES SALMONELLA TYPHIMURIUM, Strain/Indicator: TA98, Metabolic Activation: HAMSTER, LIVER, S-9, AROCLOR 1254, Method: STANDARD PLATE): inactive; negative
- mutagenic call [1]: inactive; negative
- mutagenic call (Test System: AMES SALMONELLA TYPHIMURIUM, Strain/Indicator: TA98, Metabolic Activation: RAT LIVER S-9 AROCLOR 1254, Method: STANDARD PLATE): inactive; negative
- mutagenic call (Test System: AMES SALMONELLA TYPHIMURIUM, Strain/Indicator: TA98, Metabolic Activation: RAT, LIVER, S-9, AROCLOR 1254, Method: STANDARD PLATE): inactive; negative
- mutagenic call (Test System: AMES SALMONELLA TYPHIMURIUM, Strain/Indicator: TA100, Metabolic Activation: HAMSTER, LIVER, S-9, AROCLOR 1254, Method: STANDARD PLATE): inactive; negative
- mutagenic call [2]: inactive; negative
- mutagenic call (Test System: AMES SALMONELLA TYPHIMURIUM, Strain/Indicator: TA100, Metabolic Activation: RAT LIVER S-9, AROCLOR 1254, Method: STANDARD PLATE): inactive; negative
- mutagenic call (Test System: AMES SALMONELLA TYPHIMURIUM, Strain/Indicator: TA100, Metabolic Activation: RAT, LIVER, S-9, AROCLOR 1254, Method: STANDARD PLATE): inactive; negative
- mutagenic call (Test System: AMES SALMONELLA TYPHIMURIUM, Strain/Indicator: TA1535, Metabolic Activation: HAMSTER, LIVER, S-9, AROCLOR 1254, Method: STANDARD PLATE): inactive; negative
- mutagenic call [3]: inactive; negative
- mutagenic call (Test System: AMES SALMONELLA TYPHIMURIUM, Strain/Indicator: TA1535, Metabolic Activation: RAT, LIVER, S-9, AROCLOR 1254, Method: STANDARD PLATE): inactive; negative
- mutagenic call (Test System: AMES SALMONELLA TYPHIMURIUM, Strain/Indicator: TA1537, Metabolic Activation: HAMSTER, LIVER, S-9, AROCLOR 1254, Method: STANDARD PLATE): inactive; negative
- mutagenic call [4]: inactive; negative
- mutagenic call (Test System: AMES SALMONELLA TYPHIMURIUM, Strain/Indicator: TA1537, Metabolic Activation: RAT, LIVER, S-9, AROCLOR 1254, Method: STANDARD PLATE): inactive; negative
- mutagenic call (Test System: AMES SALMONELLA TYPHIMURIUM, Strain/Indicator: TA1538, Metabolic Activation: HAMSTER, LIVER, S-9, AROCLOR 1254, Method: STANDARD PLATE): inactive; negative
- mutagenic call [5]: inactive; negative
- mutagenic call (Test System: AMES SALMONELLA TYPHIMURIUM, Strain/Indicator: TA1538, Metabolic Activation: RAT, LIVER, S-9, AROCLOR 1254, Method: STANDARD PLATE): inactive; negative
- mutagenic call (Test System: MOUSE LYMPHOMA, Strain/Indicator: L5178Y (TK+/TK-), Metabolic Activation: NONE, Method: SUSPENSION/PLATE): inactive; negative. reevaluation of results: negative
- mutagenic call (Test System: MOUSE LYMPHOMA, Strain/Indicator: L5178Y (TK+/TK-), Metabolic Activation: RAT, LIVER, S-9, AROCLOR 1254, Method: SUSPENSION/PLATE): inactive; negative. reevaluation of results: negative

SMILES: BrCc1c2ccccc2c2ccc3cccc4ccc1c2c43
- mutagenic call [1]: active; positive
- mutagenic call [2]: active; positive

SMILES: O[C@@H]1[C@@H]2O[C@@H]2c2c(cc3ccc4cccc5c6ccccc6c2c3c45)[C@H]1O
- mutagenic call (Test System: AMES SALMONELLA TYPHIMURIUM, Strain/Indicator: TA97, Metabolic Activation: NONE, Method: PREINCUBATION (EXPOSURE IN MEDIUM WITH KCL)): active; positive
- mutagenic call (Test System: AMES SALMONELLA TYPHIMURIUM, Strain/Indicator: TA97, Metabolic Activation: NONE, Method: PREINCUBATION (EXPOSURE IN MEDIUM WITHOUT KCL)): active; positive
- mutagenic call (Test System: AMES SALMONELLA TYPHIMURIUM, Strain/Indicator: TA98, Metabolic Activation: NONE, Method: PREINCUBATION (EXPOSURE IN MEDIUM WITH KCL)): active; positive
- mutagenic call (Test System: AMES SALMONELLA TYPHIMURIUM, Strain/Indicator: TA98, Metabolic Activation: NONE, Method: PREINCUBATION (EXPOSURE IN MEDIUM WITHOUT KCL)): active; positive
- mutagenic call (Test System: AMES SALMONELLA TYPHIMURIUM, Strain/Indicator: TA100, Metabolic Activation: NONE, Method: PREINCUBATION (EXPOSURE IN MEDIUM WITH KCL)): active; positive
- mutagenic call (Test System: AMES SALMONELLA TYPHIMURIUM, Strain/Indicator: TA100, Metabolic Activation: NONE, Method: PREINCUBATION (EXPOSURE IN MEDIUM WITHOUT KCL)): active; positive
- mutagenic call (Test System: AMES SALMONELLA TYPHIMURIUM, Strain/Indicator: TA104, Metabolic Activation: NONE, Method: PREINCUBATION (EXPOSURE IN MEDIUM WITH KCL)): active; positive
- mutagenic call (Test System: AMES SALMONELLA TYPHIMURIUM, Strain/Indicator: TA104, Metabolic Activation: NONE, Method: PREINCUBATION (EXPOSURE IN MEDIUM WITHOUT KCL)): active; positive
- mutagenic call (Test System: CHINESE HAMSTER V-79, Strain/Indicator: V-79/6-THIOGUANINE, Metabolic Activation: NONE): active; positive

SMILES: CC(=O)OO
- mutagenic call (Test System: AMES SALMONELLA TYPHIMURIUM, Strain/Indicator: TA97, Metabolic Activation: HAMSTER, LIVER, S-9, AROCLOR 1254 (10 OR 30%), Method: PREINCUBATION): inactive; negative
- mutagenic call (Test System: AMES SALMONELLA TYPHIMURIUM, Strain/Indicator: TA97, Metabolic Activation: NONE, Method: PREINCUBATION): inactive; negative
- mutagenic call (Test System: AMES SALMONELLA TYPHIMURIUM, Strain/Indicator: TA97, Metabolic Activation: RAT, LIVER, S-9, AROCLOR 1254 (10 OR 30%), Method: PREINCUBATION): inactive; negative
- mutagenic call (Test System: AMES SALMONELLA TYPHIMURIUM, Strain/Indicator: TA98, Metabolic Activation: HAMSTER, LIVER, S-9, AROCLOR 1254 (10 OR 30%), Method: PREINCUBATION): inactive; negative
- mutagenic call (Test System: AMES SALMONELLA TYPHIMURIUM, Strain/Indicator: TA98, Metabolic Activation: NONE, Method: PREINCUBATION): inactive; negative
- mutagenic call (Test System: AMES SALMONELLA TYPHIMURIUM, Strain/Indicator: TA98, Metabolic Activation: RAT, LIVER, S-9, AROCLOR 1254 (10 OR 30%), Method: PREINCUBATION): inactive; negative
- mutagenic call (Test System: AMES SALMONELLA TYPHIMURIUM, Strain/Indicator: TA100, Metabolic Activation: HAMSTER, LIVER, S-9, AROCLOR 1254 (10 OR 30%), Method: PREINCUBATION): inactive; negative
- mutagenic call (Test System: AMES SALMONELLA TYPHIMURIUM, Strain/Indicator: TA100, Metabolic Activation: NONE, Method: PREINCUBATION): inactive; negative
- mutagenic call (Test System: AMES SALMONELLA TYPHIMURIUM, Strain/Indicator: TA100, Metabolic Activation: RAT, LIVER, S-9, AROCLOR 1254 (10 OR 30%), Method: PREINCUBATION): inactive; negative
- mutagenic call (Test System: AMES SALMONELLA TYPHIMURIUM, Strain/Indicator: TA1535, Metabolic Activation: HAMSTER, LIVER, S-9, AROCLOR 1254 (10 OR 30%), Method: PREINCUBATION): inactive; negative
- mutagenic call (Test System: AMES SALMONELLA TYPHIMURIUM, Strain/Indicator: TA1535, Metabolic Activation: NONE, Method: PREINCUBATION): inactive; negative
- mutagenic call (Test System: AMES SALMONELLA TYPHIMURIUM, Strain/Indicator: TA1535, Metabolic Activation: RAT, LIVER, S-9, AROCLOR 1254 (10 OR 30%), Method: PREINCUBATION): inactive; negative
